# Experimental data from US6638938B1, “Method for preventing tissue injury from hypoxia” (Cell Therapeutics, Inc., priority 1993, dated 2003).
# Tests used:
# human neutrophils = test: neutrophil adherence to nylon fiber; format: cell-based
# Source text: Human recombinant interleukin-1α (IL-1) was obtained from Hoffmann-LaRoche, Inc. (Nutley, N.J.), frozen inaliquots and thawed daily for use. Ketamine hydrochloride was obtained from Parke-Davis (Morris Plains, N.J.), xylazine from Haver (New York, N.J.), ^125I labeled bovine serum albumin (BSA) from ICN Radiochemicals (Irvine, Calif.), and heparin sodium from Elkins-Sinn, Inc. (Cherry Hill, N.J.). All other reagents were purchased from Sigma Chemical Co. (St. Louis, Mo.). Neutrophils were purified from human blood by well described methods. Venous blood was anticoagulated with heparin and the cellular elements were separated from platelet-rich plasma by centrifugation. Cell pellets were resuspended in platelet-poor plasma and diluted 1:4 with 6% dextran (Pharmacia Fine Chemicals, Piscataway, N.J.) in saline. Red cells were separated from leukocytes by sedimentation. Leukocyte-rich supernatants were then aspirated, underlain with Ficoll-Hypaque (Pharmacia Fine Chemicals), and centrifuged at 275×g to separate neutrophils and monocytes. Sedimented neutrophils were resuspended in Hank's balanced salt solution (HBSS). These preparations contained 94 to 96% neutrophils and 4 to 6% monocytes. All values were compared by analysis of variance and corrected by post hoc Student t tests for differences between groups. A p value of <0.05 was considered significant.
# Neutrophil adherence was measured using the nylon fiber technique. Briefly, 50 mg of scrubbed nylon fiber (3-XXX), 3.81 cm type 200 (Travenol Laboratories, Deerfield, Ill.), was packed into the distal 10 mm of the barrels of tuberculin syringes. Ficoll-Hypaque-purified human neutrophils (1×10^7 cells) in plasma (total volume, 0.25 ml) with and without Lisofylline were then placed in the top of the nylon fiber column which was maintained at 37° C. After 90 sec, the plunger was inserted and the samples were eluted. Eluted neutrophils were counted by hemocytometer, and percentages of neutrophils adhering to the nylon fiber were calculated by the following formula: [formula]
# Neutrophil chemotactic activity was determined by Boyden chamber assay and quantitated as the number of migrating PMN/5HPF using zymosan-activated serum (ZAS) as the chemoattractant (Repine et al., J. Reticuloendo. Soc. 24:217, 1978). Neutrophil adherence was assessed by quantitating the percentage of neutrophils adhering to nylon fibers following addition of phorbol myristate acetate (PMA 10-^6M, Sigma) (Rasp et al., J. Reticuloendo. Soc. 25:101, 1979). Neutrophil superoxide production was determined by quantitating superoxide dismutase inhibitable reduction of cytochrome c in response to PMA (10^−6 M) (Berger et al., J. Infectious Dis. 149:413, 1984).
# [1] = system: neutrophils in lung lavages; test: lung lavage neutrophils of intact rats given IL-1 intratracheally; format: in vivo, Sprague-Dawley rats
# Protocol: Interleukin-1α (IL-1) and Lisofylline administration in Male Sprague-Dawley rats weighing 300-350 g (Sasco, Omaha, Neb.) were fed a normal diet and acclimated to altitude (Denver, Colo.) for at least 14 days before study. Rats were anesthetized with ketamine (90 mg/kg) and zylazine (7 mg/kg) intraperitoneally and then supplemented as needed with ketamine and zylazine and kept on a warming blanket. The trachea was cannulated with an indwelling 15 gauge stub adaptor tube. After 5 ventilated breaths (Harvard Apparatus Co., Millis, Mass.), IL-1 (0.5 ml, 50 ng) in sterile, endotoxin-free saline, was rapidly instilled intratracheally with a syringe, followed by another 5 ventilated breaths. Sham treated rats received identical anesthesia and surgery but were injected only with sterile saline intratracheally. […]
# Saline (3.0 ml×2) was slowly injected intratracheally and then withdrawn. Recovered lavage fluid was quantitated and centrifuged for 5 min and the cell pellet resuspended in 1.0 ml of lavage. Total cells were counted in a hemocytometer and a cytospin preparation (Shandon Southern Products Ltd, Cheshire, England) Wright-stained and examined to determine the percentages of neutrophils.
# [2] = system: human neutrophils (PA, lyso-PA); test: PA and lyso-PA mass in human neutrophils after hypoxia/reoxygenation; format: cell-based
# Protocol: This example provides evidence from a group of experiments of the nexus and relationship between inhibiting linoleate-enriched PA species and reversal of hypoxic/reoxygenation tissue injury with Lisofylline. Lisofylline treated human neutrophils were exposed to hypoxia and then reoxygenation in vitro. Human neutrophils (PMN) were prepared from heparinized blood obtained from consenting, healthy human volunteers, isolated and highly purified (>99%)-by percoll gradient anddifferential centrifugation and resuspended in HBSS (Hanks balanced salt solution). Human neutrophils were placed in hypoxia (95% N2+5% CO2) for 60 min and then reoxygenated (21% O2+5% CO2) for 20 min.
# Following hypoxia/reoxygenation, human neutrophils had increased PA concentrations with a retention time (Rf) characteristic of linoleate-enriched PA species. The analysis was done by fixing the neutrophils in ice-cold methanol, extracting the lipids and then separating them by HPLC using a Waters μ-Porosil silica column and an anisocratic gradient (Bursten et al., J. Biol. Chem. 266:20732, 1991). Lipids in the column effluent were monitored at 206-224nm. HPLC fractions were also analyzed by thin layer chromatography (TLC), amine content, acyl content and mass spectroscopy to confirm peak identities. Fast-atom bombardrment (FAB) mass spectroscopy spectra were acquired using a VG 70 SEQ tandem hybrid instrument of EBqQ geometry (VG Analytical, Altricham UK) as described in Bursten et al. The mass of total PA varied from 0.65-0.75% in unstimulated neutrophils to 2.7-3.6% of total detectable lipids in stimulated neutrophils (i.e., increased by 3.5-5 fold), whereas lyso-PA mass in neutrophils pretreated with Lisofylline and subject to hypoxia/reoxygenation stimulation could range as high as 7-8% of total detectable lipids. Hypoxia/reoxygenated neutrophils preincubated with 10 μM to 100 μM Lisofylline had decreased PA and increased lyso-PA total mass compared to untreated but stimulated neutrophils.
# [3] = hypoxia/reoxygenated neutrophils preincubated with 10 μM to 100 μM, versus untreated but stimulated
compound,measurement,setting,value
"C[C@@H](O)CCCCn1c(=O)c2c(ncn2C)n(C)c1=O [Lisofylline, 1-R-(5-hydroxyhexyl)-3,7-dimethylxanthine]",Neutrophil Adherence,human neutrophils; Neutrophils + PMA + Lisofylline 0.7 μM,35.8 ± 4.52 (4)δ %
same,Neutrophil Adherence,human neutrophils; Neutrophils + PMA + Lisofylline 7 μM,38.8 ± 1.38 (4)δ %
same,Neutrophil Adherence,human neutrophils; Neutrophils + PMA + Lisofylline 70 μM,25.6 ± 2.78 (5)δ %
same,Neutrophil Adherence,human neutrophils; Neutrophils + PMA + Lisofylline 700 μM,26.6 ± 6.03 (5)δ %
same,stimulated human neutrophil adherence,"human neutrophils; PMA 10^-6 M, in vitro",reduced
same,Total Lavage PMNs,[1]; IL-1 + Lisofylline (100 μg/kg),3.64 ± 0.84 (9)δ number × 10^6
same,Total Lavage PMNs,[1]; Sham + Lisofylline (100 μg/kg),0.42 ± 0.14 (8)δ number × 10^6
same,PA total mass,[2]; [3],decreased
same,lyso-PA total mass,[2]; [3],increased
same,lyso-PA mass,"[2]; neutrophils pretreated with Lisofylline, hypoxia/reoxygenation stimulation, could range as high as",7-8 % of total detectable lipids
